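Test compounds were applied to cells in 96-well plates for 48 hours at 5 doses. Abbreviation: GI50, concentration required for 50% inhibition of growth.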 Active and inactive are the calls of the source. Cut-off read from the data, not from the text of the source: active = GI50 up to about 1.1 µM and inactive = higher.
Key:
Assay in all cases: inhibition of tumour cell growth, NCI panel, 48 h
786-0 = test system: 786-0
DU-145 = test system: DU-145
HCT-116 = test system: HCT-116
HCT-15 = test system: HCT-15
HL-60 = test system: HL-60
HOP-92 = test system: HOP-92
K562 = test system: K562
M14 = test system: M14
MCF7 = test system: MCF7
MDA-N = test system: MDA-N
NCI-H522 = test system: NCI-H522
OVCAR-5 = test system: OVCAR-5
OVCAR-8 = test system: OVCAR-8
PC-3 = test system: PC-3
RPMI-8226 = test system: RPMI-8226
SF-295 = test system: SF-295
SK-OV-3 = test system: SK-OV-3
SNB-19 = test system: SNB-19
T47D = test system: T47D
UACC-257 = test system: UACC-257

SMILES | GI50 (786-0) | GI50 (DU-145) | GI50 (HCT-116) | GI50 (HCT-15) [µM] | GI50 (HL-60) | GI50 (HOP-92) | GI50 (K562) | GI50 (M14) | GI50 (MCF7) | GI50 (MDA-N) | GI50 (NCI-H522) | GI50 (OVCAR-5) | GI50 (OVCAR-8) | GI50 (PC-3) | GI50 (RPMI-8226) | GI50 (SF-295) | GI50 (SK-OV-3) | GI50 (SNB-19) | GI50 (T47D) | GI50 (UACC-257)
O=CN1CCN(C(=O)c2cc(Cl)cc(Cl)c2)C1=S | 4.71 µM (inactive) | 16.8 µM (inactive) | 18.6 µM (inactive) | 17 | 10.3 µM (inactive) | 17.9 µM (inactive) | 14.8 µM (inactive) | 15.6 µM (inactive) | 3.47 µM (inactive) | 18.8 µM (inactive) | 3.5 µM (inactive) | 21.9 µM (inactive) | 19.1 µM (inactive) | 16.6 µM (inactive) | 2.44 µM (inactive) | 17.7 µM (inactive) | 17.5 µM (inactive) | 20.5 µM (inactive) | 10.7 µM (inactive) | 17.4 µM (inactive)
O=C1C(C(O)(C(F)(F)Cl)C(F)(F)Cl)CCC1C(O)(C(F)(F)Cl)C(F)(F)Cl (stereo not given) | > 10 µM (inactive) | 3.81 µM (inactive) | 2.5 µM (inactive) | 3.91 | > 10 µM (inactive) | 2.09 µM (inactive) | > 10 µM (inactive) | 7.78 µM (inactive) | 3.48 µM (inactive) | > 10 µM (inactive) | 4.45 µM (inactive) | 5.43 µM (inactive) | 3.94 µM (inactive) | 4.53 µM (inactive) | > 10 µM (inactive) | 2.58 µM (inactive) | 5.51 µM (inactive) | 4.3 µM (inactive) | 4.44 µM (inactive) | 2.79 µM (inactive)
C=CC1=C(C)c2cc3[nH]c(c4c5nc(cc6[nH]c(cc1n2)c(C)c6CC)C(C)=C5C(=O)[C@@H]4C(=O)OC)[C@@H](CCC(=O)O)[C@@H]3C | 7.71 µM (inactive) | 33.8 µM (inactive) | 8.71 µM (inactive) | 2.49 | 1.37 µM (inactive) | 1.63 µM (inactive) | 1.38 µM (inactive) | 3.66 µM (inactive) | 2.98 µM (inactive) | 5.27 µM (inactive) | 7.57 µM (inactive) | 3.41 µM (inactive) | 3.52 µM (inactive) | 3.62 µM (inactive) | 2 µM (inactive) | 2.12 µM (inactive) | 4.06 µM (inactive) | 4.09 µM (inactive) | 5.81 µM (inactive) | 5.32 µM (inactive)
O=C1c2cccc3cc([N+](=O)[O-])cc(c23)C(=O)N1O | 45.2 µM (inactive) | 37.5 µM (inactive) | 27 µM (inactive) | 32.7 | > 100 µM (inactive) | 57 µM (inactive) | 36.8 µM (inactive) | 39.2 µM (inactive) | 24.8 µM (inactive) | 47 µM (inactive) | 58.7 µM (inactive) | 44.1 µM (inactive) | 44.5 µM (inactive) | 43.5 µM (inactive) | 19.4 µM (inactive) | 46.1 µM (inactive) | 46.9 µM (inactive) | 43.9 µM (inactive) | 37.2 µM (inactive) | 33.7 µM (inactive)
COc1cc(/C=[N+](\[O-])c2ccccc2Cl)ccc1OC(=S)S | 50.4 µM (inactive) | 72.1 µM (inactive) | 32.5 µM (inactive) | 33.2 | 20.1 µM (inactive) | 10.1 µM (inactive) | 25.9 µM (inactive) | 30.9 µM (inactive) | 27.6 µM (inactive) | 29 µM (inactive) | 26.5 µM (inactive) | > 100 µM (inactive) | 32.7 µM (inactive) | 38.2 µM (inactive) | 29.2 µM (inactive) | 30.3 µM (inactive) | 43.9 µM (inactive) | 55.1 µM (inactive) | 18.8 µM (inactive) | 26.4 µM (inactive)
COc1ccc(Oc2cnn(C(Br)(Br)C(C)=O)c(=O)c2Br)cc1 | 13.9 µM (inactive) | 19.2 µM (inactive) | 7 µM (inactive) | 16 | 1.97 µM (inactive) | 14.7 µM (inactive) | 3.85 µM (inactive) | 13.9 µM (inactive) | 15.4 µM (inactive) | 10.3 µM (inactive) | 4.56 µM (inactive) | 17.7 µM (inactive) | 13.3 µM (inactive) | 14.1 µM (inactive) | 3.14 µM (inactive) | 18.2 µM (inactive) | 24.3 µM (inactive) | 24.5 µM (inactive) | 18.5 µM (inactive) | 15.1 µM (inactive)
O=c1[nH]nc(Cc2ccccc2)n1/N=C/c1c[nH]c2ccccc12 | 43 µM (inactive) | > 100 µM (inactive) | > 100 µM (inactive) | > 100 | > 100 µM (inactive) | > 100 µM (inactive) | > 100 µM (inactive) | > 100 µM (inactive) | > 100 µM (inactive) | 29.8 µM (inactive) | 22.9 µM (inactive) | > 100 µM (inactive) | > 100 µM (inactive) | 92 µM (inactive) | > 100 µM (inactive) | 27.7 µM (inactive) | 96.2 µM (inactive) | 49.5 µM (inactive) | > 100 µM (inactive) | 96.2 µM (inactive)
COc1ccc(/C=C(\C#N)c2nc3ccccc3c(=O)[nH]2)cc1 | 13.9 µM (inactive) | 23.1 µM (inactive) | 5.22 µM (inactive) | 54.5 | > 100 µM (inactive) | 12.1 µM (inactive) | > 100 µM (inactive) | 30 µM (inactive) | 34.4 µM (inactive) | > 100 µM (inactive) | 10.6 µM (inactive) | > 100 µM (inactive) | 10.6 µM (inactive) | 38.7 µM (inactive) | > 100 µM (inactive) | 20.5 µM (inactive) | 11.3 µM (inactive) | 12.9 µM (inactive) | 20.6 µM (inactive) | 68.7 µM (inactive)
COC(=O)C1=C(OC(=O)/C(=C/c2ccc(Cl)cc2Cl)c2ccc(Cl)cc2Cl)C(C(=O)OC)[C@@]2(O)[C@@H](C(=O)OC)[C@H](C)C[C@@H]1[C@@H]2C(=O)OC (stereo not given in full) | > 100 µM (inactive) | > 100 µM (inactive) | > 100 µM (inactive) | > 100 | > 100 µM (inactive) | 22.9 µM (inactive) | > 100 µM (inactive) | > 100 µM (inactive) | > 100 µM (inactive) | > 100 µM (inactive) | 64.1 µM (inactive) | > 100 µM (inactive) | 34.4 µM (inactive) | 7.1 µM (inactive) | > 100 µM (inactive) | 16.5 µM (inactive) | > 100 µM (inactive) | > 100 µM (inactive) | > 100 µM (inactive) | > 100 µM (inactive)
N#CC(C#N)=CNCCN1CCN(C=C(C#N)C#N)CC1 | > 100 µM (inactive) | > 100 µM (inactive) | > 100 µM (inactive) | > 100 | > 100 µM (inactive) | > 100 µM (inactive) | > 100 µM (inactive) | > 100 µM (inactive) | > 100 µM (inactive) | > 100 µM (inactive) | > 100 µM (inactive) | > 100 µM (inactive) | > 100 µM (inactive) | > 100 µM (inactive) | > 100 µM (inactive) | > 100 µM (inactive) | > 100 µM (inactive) | > 100 µM (inactive) | > 100 µM (inactive) | > 100 µM (inactive)
O=C(CCl)Nc1ccc(C(=O)N/N=C/c2ccc(Cl)cc2)cc1 | 1.58 µM (inactive) | 3.02 µM (inactive) | 1.8 µM (inactive) | 4.63 | 1.6 µM (inactive) | 2 µM (inactive) | 2.89 µM (inactive) | 6.41 µM (inactive) | 5.09 µM (inactive) | 1.83 µM (inactive) | 1.75 µM (inactive) | 18.8 µM (inactive) | 2.29 µM (inactive) | 2.02 µM (inactive) | 2.42 µM (inactive) | 4.06 µM (inactive) | 3.03 µM (inactive) | 7.41 µM (inactive) | 2.51 µM (inactive) | 1.67 µM (inactive)
O=C1Nc2ccc(Br)cc2/C1=N/c1ccc(Cl)cc1 | 26.3 µM (inactive) | 47.2 µM (inactive) | 14.3 µM (inactive) | 11.1 | 5.48 µM (inactive) | 37.3 µM (inactive) | 0.586 µM (active) | 20.7 µM (inactive) | 10.2 µM (inactive) | 6.98 µM (inactive) | 7.66 µM (inactive) | 18.2 µM (inactive) | 11.7 µM (inactive) | 25.3 µM (inactive) | 4.39 µM (inactive) | 3.63 µM (inactive) | 40.8 µM (inactive) | 28 µM (inactive) | 16.9 µM (inactive) | 18.1 µM (inactive)
CN(C)CCNC(=O)c1ccc(NCCCN(C)CCCNc2ccc3c(=O)n(CCN(C)C)c(=O)n4c5ccccc5c(=O)c2c34)c2c(O)c3ccccc3nc12 | < 0.01 µM (active) | < 0.01 µM (active) | < 0.01 µM (active) | 0.0155 | 0.0318 µM (active) | 0.114 µM (active) | 0.0324 µM (active) | 0.164 µM (active) | < 0.01 µM (active) | 0.0332 µM (active) | 0.0102 µM (active) | 0.0192 µM (active) | < 0.01 µM (active) | < 0.01 µM (active) | < 0.01 µM (active) | < 0.01 µM (active) | < 0.01 µM (active) | < 0.01 µM (active) | 0.165 µM (active) | 0.162 µM (active)
O=C1CSC(/C=C/c2ccccc2)N1c1ccc(-n2c(-c3ccccc3)nc3ccccc3c2=O)cc1 (stereo not given) | > 100 µM (inactive) | > 100 µM (inactive) | > 100 µM (inactive) | 86.9 | > 100 µM (inactive) | > 100 µM (inactive) | > 100 µM (inactive) | > 100 µM (inactive) | 52.2 µM (inactive) | > 100 µM (inactive) | 50.6 µM (inactive) | > 100 µM (inactive) | > 100 µM (inactive) | 61.2 µM (inactive) | > 100 µM (inactive) | > 100 µM (inactive) | 19.3 µM (inactive) | > 100 µM (inactive) | 17 µM (inactive) | > 100 µM (inactive)

From ChEMBL document CHEMBL1201862, “PubChem BioAssay data set” (2004)
